Assay [1] can be described thus: Hallmarks of immunogenic cell death in vivo and in vitro (Example 7).
In assay [2] the test system is NCI-H929 Multiple Myeloma cells. Description: IL-10 in supernatants of NCI-H929 cells cultured alone. It is filed as cell-based, human. Conditions: 48 hours, 0.1, 1, 10 μg/mL. As to the method: Fresh, whole Human blood was obtained from three healthy donors from the Upper Providence Blood Donation Unit with syringes coated in liquid sodium heparin (Sagent 10 IU/mL final concentration). Monocytes were isolated from fresh, whole human blood using the RosetteSep Monocyte Enrichment kit (Cat. #15068) and were assessed for expression of cell surface CD14 (BD Bioscience Cat. #562698) using flow cytometry. Isolated Monocytes (1.5×10^6 cells/well) were cultured in 2 mLs of X-Vivo-15 Media supplemented with 1% autologous plasma, 50 ng/mL recombinant human GM-CSF (R&D, 215-GM-050) and 100 ng/mL recombinant human IL-4 (R&D, 204-IL-050) for 7 Days at 37° C./5% CO2. The cultures received a half media change at Day 3 or 4 while maintaining stimulation factor concentrations. NCI-H929 Multiple Myeloma cells were passaged for 2 passages from thaw at 37° C., 5% CO2, 90% humid air in RPMI-1640 supplemented with 10% FBS. Cells were plated at a density of 7.5×10^5 cells/ml in 2 mLs on 12 well plates. […]
FIG. 3C: IL-10 decreased with BCMA ADC treatment in supernatants from NCI-H929 Multiple Myeloma cells cultured alone. IL-10 was measured in Untreated (a), IgG Control (b), 0.1 (c), 1 (d), and 10 μg/mL BCMA ADC (e) treated (48 hours) NCI-H929 Multiple Myeloma cells.

Assay [3] deals with CD4 and CD8 T cells in PBMC. Nature of the assay: PBMC T cell activation assay (anti-CD3/anti-CD28 stimulation), activation markers by flow cytometry. The format is cell-based, human. The settings on record: 24 and 72 hrs, 30, 3 and 0.3 μg/mL. The text has this: T cells can be activated through the engagement of the T cell receptor (TCR) and co-stimulatory molecules expressed on the cell surface. […] Furthermore, upon activation, T cells produce cytokines such as IFNγ and IL-4. The effect of BCMA ADC on IFNγ and IL-4 productions in stimulated T cells was also studied. These experiments can provide data on the effect of BCMA ADC on T cells activation and function. In addition, proliferation of human CD4+ and CD8+ T cells upon stimulation in the presence of BCMA ADC was also evaluated. Human blood was obtained from the blood donor procurement program at GlaxoSmithKline. Peripheral blood mononuclear cells (PBMCs) were isolated from human whole blood by Ficoll density gradient centrifugation (GE Healthcare). Anti-human CD3 antibody (eBioscience, catalog #16-0037-85, clone OKT3) diluted with coating buffer (Biolegend, catalog #421701) was coated on 96 well flat-bottom plate overnight.
In this study, BCMA ADC treatment and PBMC activation occurred concurrently and the effects were monitored at 24 and 72 hrs. […] Immunofluorescence analysis was performed on a FACS CANTO II flow cytometer (BD Biosciences) and analyzed with DIVA software (BD Biosciences). Flow cytometry was used to monitor the percentage of CD4 or CD8 cells that express a given marker, and the mean fluorescence intensity (MFI) of this maker in CD4 or CD8 cells. […]

For assay [4], the system named is multiple myeloma. Description: Phase 1 clinical trial in relapsed and refractory multiple myeloma patients. It is filed as in vivo, human. The text has this:
Multiple myeloma (MM) is a disease that affects plasma cells and leads to devastating clinical features. MM is the second most common hematological malignancy and remains an incurable disease. Therefore, novel targeted therapies are in need.

In the case of GSK2857916, the “hallmarks of ICD (cell surface calreticulin and other ER stress response proteins, secretion of HMGB1)” value in assay [1] is given as “induces hallmarks of ICD”. For the same substance, in assay [2], the IL-10 in supernatants entry is listed as “decreased”. Moreover, in assay [3], the “effect on anti-CD3/anti-CD28 stimulated CD4 and CD8 T cell activation” value is listed as “minimal effect”. The substance further showed an overall response rate in assay [4] of 60%.

For the origin of these results see patent publication US20220096650A1 (Glaxosmithkline Intellectual Property Development Limited, priority 2019, published 2022).
